We go through 32 molecules from ChEMBL document CHEMBL1140725, “Pradefovir: a prodrug that targets adefovir to the liver for the treatment of hepatitis B” (J Med Chem, 2008).

Structures are written as SMILES. Bounds are passed on as bounds.

The test system of data set [1] is Hepatocyte. Put plainly: Prodrug activation in intracellular rat hepatocytes assessed as formation of adefovir diphosphate after 2 hrs. In kind it is cell-based.
Data set [2] relates to Liver microsomes. Description: Prodrug activation in Wistar rat liver microsome assessed as formation of adefovir at 250 uM after 5 mins. Background: Liver microsomes are a subcellular fraction often used to study metabolism.
For data set [3], the system named is Rattus norvegicus. Description: Prodrug activation in Sprague-Dawley rat liver hepatocytes assessed as formation of adefovir diphosphate at 30 mg/kg, po after 8 hrs. In kind it is organism-based, Hepatocyte. Further details: dose 30 mg/kg, route oral.
Data set [4] relates to Rattus norvegicus. Description: Cmax in rat liver at 30 mg/kg, po. In kind it is ADME, organism-based. Further details: dose 30 mg/kg, route oral. Particulars: in vivo.
Data set [5] deals with Kidney. Description: Biodistribution in rat kidney at 30 mg/kg, po after 24 hrs. In kind it is ADME, organism-based. Set-up: dose 30 mg/kg, route oral. Particulars: in vivo.
For data set [6], the system named is Rattus norvegicus. Description: Biodistribution in rat small intestine at 30 mg/kg, po after 24 hrs. In kind it is ADME, organism-based. Further details: dose 30 mg/kg, route oral. Particulars: in vivo.
For data set [7], the system named is Plasma. Put plainly: Biodistribution in rat plasma at 30 mg/kg, po after 24 hrs. As to conditions: in vivo. In kind it is ADME, organism-based. Further details: dose 30 mg/kg, route oral.
Data set [8] deals with Liver. Description: Selectivity index, ratio of biodistribution in rat liver to kidney at 30 mg/kg, po after 24 hrs. In kind it is organism-based. Further details: dose 30 mg/kg, route oral. Particulars: in vivo.
For data set [9], the system named is Liver. Put plainly: Biodistribution in rat liver at 30 mg/kg, po after 24 hrs. In kind it is ADME, organism-based. Set-up: dose 30 mg/kg, route oral. As to conditions: in vivo.
The subject of data set [10] is Intestine. Put plainly: Selectivity index, ratio of biodistribution in rat liver to intestine at 30 mg/kg, po after 24 hrs. In kind it is organism-based. Set-up: dose 30 mg/kg, route oral. Particulars: in vivo.

Regarding `Nc1ncnc2c1ncn2CCOCP1(=O)OCCC(c2cc(F)cc(F)c2)O1` (centres undefined), the values for the Activity in data set [1], in data set [2] and in [3] were 61.9 nmol·h/g, 1.5 nmol/min/mg and 2.2 nmol·h/g, respectively.
As to `Nc1ncnc2c1ncn2CCOCP1(=O)OCCC(c2cccc(Cl)c2Cl)O1` (centres undefined), in [2], the Activity is recorded as under 4.5 nmol/min/mg.
Regarding `Nc1ncnc2c1ncn2CCOCP1(=O)OCCC(c2ccc(Cl)cc2Cl)O1` (centres undefined), the figures for the Activity in data set [1] and in data set [2] were 9.8 nmol·h/g and 2.5 nmol/min/mg, respectively.
In data set [4], `CS(=O)(=O)O.Nc1ncnc2c1ncn2CCOCP1(=O)OCCC(c2cccc(Cl)c2)O1` (centres undefined) gave a Cmax of 19.6 nmol/g.
On to `Nc1ncnc2c1ncn2CCOCP1(=O)OCCC(c2ccccc2)O1` (centres undefined), for which the Activity amounted to 149.1 nmol·h/g in [1], 2.9 nmol/min/mg in data set [2] and 0.6 nmol·h/g in data set [3].
On to `Nc1ncnc2c1ncn2CCOCP1(=O)OCCC(c2ccccc2Cl)O1` (centres undefined), for which the Activity in data set [2] stood at 6.2 nmol/min/mg.
For `Nc1ncnc2c1ncn2CCOCP1(=O)OCCC(c2ccccc2Br)O1` (centres undefined), the Activity in [1] amounted to 43.1 nmol·h/g; in data set [2], 3.5 nmol/min/mg; in [3] it was 7.1 nmol·h/g.
In the same order, the values of `Nc1ncnc2c1ncn2CCOCP1(=O)OCCC(c2cc(Cl)cc(Cl)c2)O1` (centres undefined) are 64.4 nmol·h/g, 1.9 nmol/min/mg and 2 nmol·h/g.
As for `COc1ccc(Br)cc1C1CCOP(=O)(COCCn2cnc3c(N)ncnc32)O1` (centres undefined), the Activity in data set [2] is under 1 nmol/min/mg.
For the molecule `Cc1cc(C)cc(C2CCOP(=O)(COCCn3cnc4c(N)ncnc43)O2)c1` (centres undefined), the Activity in data set [1] was determined as 40.7 nmol·h/g; in data set [2] it was 1.6 nmol/min/mg.
`CC(C)(C)c1ccc(C2CCOP(=O)(COCCn3cnc4c(N)ncnc43)O2)cc1` (centres undefined): the results for the Activity in data set [1] and in data set [2] were 0 nmol·h/g and 0.5 nmol/min/mg, respectively.
Consider `Nc1ncnc2c1ncn2CCOCP1(=O)OCCC(c2cccc(F)c2)O1` (centres undefined), for which the Activity in data set [2] is reported as under 1 nmol/min/mg.
For `Nc1ncnc2c1ncn2CCOCP1(=O)OCCC(c2cccc(Br)c2)O1` (centres undefined), the Activity turned out to be 70.3 nmol·h/g in data set [1], 1.9 nmol/min/mg in data set [2] and 2.2 nmol·h/g in data set [3].
With `COc1ccc(C2CCOP(=O)(COCCn3cnc4c(N)ncnc43)O2)cc1Br` (centres undefined), the Activity in data set [1] was under 0.5 nmol·h/g; in [2], 1.1 nmol/min/mg.
In the same order, the values of `Nc1ncnc2c1ncn2CCOCP1(=O)OCCC(c2cccnc2)O1` (centres undefined) are 26.7 nmol·h/g and 2.9 nmol/min/mg.
Take `Nc1ncnc2c1ncn2CCOCP1(=O)OCCC(c2ccoc2)O1` (centres undefined): the figures for the Activity in [1] and in data set [2] were 0 nmol·h/g and 4 nmol/min/mg, respectively.
On to `Nc1ncnc2c1ncn2CCOCP1(=O)OCCC(c2ccc(F)cc2F)O1` (centres undefined), for which, in data set [2], the Activity came to 2.5 nmol/min/mg.
In [4], `Nc1ncnc2c1ncn2CCOC[P@]1(=O)OCC[C@H](c2cccc(Cl)c2)O1` gave a Cmax of 5.4 nmol/g. Moreover, the Activity in [2] is 0.193 nmol/min/mg.
`Nc1ncnc2c1ncn2CCOCP1(=O)OCCC(c2c(Cl)cccc2Cl)O1` (centres undefined): in data set [2], the Activity is under 1 nmol/min/mg.
The same measure, in the same setting: as for `Nc1ncnc2c1ncn2CCOCP1(=O)OCCC(c2ccccc2F)O1` (centres undefined), the figure is under 1 nmol/min/mg.
With `COc1ccc(Br)c(C2CCOP(=O)(COCCn3cnc4c(N)ncnc43)O2)c1` (centres undefined), the Activity in data set [1] was under 0.5 nmol·h/g; in data set [2], 4 nmol/min/mg.
For `Nc1ncnc2c1ncn2CCOCP1(=O)OCCC(c2ccncc2)O1` (centres undefined), the figures for the Activity in [1], in data set [2] and in data set [3] were 106.2 nmol·h/g, 4.5 nmol/min/mg and 1.2 nmol·h/g, respectively.
As to `Nc1ncnc2c1ncn2CCOCP1(=O)OCCC(c2ccsc2)O1` (centres undefined), the Activity in data set [1] amounted to 0 nmol·h/g; in [2], 0.5 nmol/min/mg.
For the molecule `Nc1ncnc2c1ncn2CCOCP1(=O)OCCC(c2cc(F)ccc2F)O1` (centres undefined), the Activity in data set [2] is given as 2.3 nmol/min/mg.
Still for that read-out and setting: as for `Nc1ncnc2c1ncn2CCOCP1(=O)OCCC(c2c(F)cccc2F)O1` (centres undefined), the figure is 1.5 nmol/min/mg.
With `Nc1ncnc2c1ncn2CCOCP1(=O)OCCC(c2ccc(Cl)c(Cl)c2)O1` (centres undefined), the Activity in data set [1] was 6.2 nmol·h/g; in data set [2], 1.5 nmol/min/mg.
On to `Nc1ncnc2c1ncn2CCOCP1(=O)OCCC(c2cccc(F)c2F)O1` (centres undefined), for which, in [2], the Activity amounted to 6.3 nmol/min/mg.
On to `Nc1ncnc2c1ncn2CCOCP1(=O)OCCC(c2cccc(Cl)c2)O1` (cis isomer), for which the Drug uptake was 196 nmol·h/g in data set [5], 118 nmol·h/g in [6], 55 nmol·h/g in data set [7] and 884 nmol·h/g in data set [9]. Besides, the Cmax in [4] was 8 nmol/g. The figures for the Selectivity index in [8] and in data set [10] were 4.5 and 7.5, respectively. Besides, the Activity in data set [2] was 0.421 nmol/min/mg.
On to `Nc1ncnc2c1ncn2CCOCP1(=O)OCCC(c2cccc(Cl)c2)O1` (stereo in doubt; 3h), for which the Activity in data set [1] came to 109.3 nmol·h/g; in data set [2] it was 10.9 nmol/min/mg; in [3] it was 6.6 nmol·h/g.
Take `Nc1ncnc2c1ncn2CCOCP1(=O)OCCC(c2cccc(Cl)c2)O1` (trans isomer): the Activity in [2] was under 0.01 nmol/min/mg.
For the molecule `CC(C)(C)C(=O)OCOP(=O)(COCCn1cnc2c(N)ncnc21)OCOC(=O)C(C)(C)C` [ADEFOVIR DIPIVOXIL], the Drug uptake in [5] turned out to be 742 nmol·h/g; in data set [6], 3206 nmol·h/g; in data set [7], 34 nmol·h/g; in data set [9], 284 nmol·h/g. The Selectivity index in data set [8] was 0.4; in data set [10], 0.08.
On to `Nc1ncnc2c1ncn2CCOC[P@@]1(=O)OCC[C@@H](c2cccc(Cl)c2)O1` [PRADEFOVIR], for which the Cmax in data set [4] came to 12.2 nmol/g. Moreover, in data set [2], the Activity amounted to 0.51 nmol/min/mg.
